System: PBMC from HIV seropositive subjects
Assay: Intracellular cAMP in PBMC from HIV seropositive subjects
Type: cell-based, human
Method: The compound 2′,5′ dideoxyadenosine (ddAdo) inhibits adenylate cyclase, the enzyme responsible for the generation of cAMP, by competition for the “P”-binding site (Johnson, J Biochem (1990) 265:11595-11600). […] In one such experiment (FIG. 9A), the intracellular cAMP level decreased to normal levels within 4 hours and remained at this level when tested after 20 hours. The effect of ddAdo was compared with two other adenylate cyclase inhibitors which are naturally occurring adenosine phosphates. When used in equal concentrations, the three inhibitors gave similar reductions in intracellular CAMP levels. For example, when added in 10 ng/ml for 10 min, ddAdo decreased the CAMP levels from 5.3 pmol/10^6 PBMC to 3.6; 3′ AMP to 3.5; and 2′,3′deoxy-AMP reduced the level to 3.2 pmol/10^6 PBMC.
cAMP was determined using a commercial scintillation proximity RIA (Amersham, Arlington Heights, Ill.) following the manufacturer's protocol. PKA activity was determined using a kit from Gibco (Grand Island, N.Y.) and the manufacturer's protocol. For the cAMP assay, cells were lysed and sonicated in assay buffer (provided with the kits). Proliferative assays were performed as described above.
Further purification was achieved by reverse phase chromatography. 3 ml of above solution was applied on C18 Sep-Pak cartridge (Waters) equilibrated with water+0.1% TFA. The column was washed with H2O-TFA until absorbance at 280nm reached baseline. Bound material was eluted from the column by stepwise elution with H2O-acetonitrile-TFA mixtures. There were three peaks on elution curve at 20%, 40% and 70% acetonitrile. The effluent from the above step was rechromatographed again on C18 cartridge and yielded additional quantities of the three products. […] Fraction 2 was added in various PBS dilutions to lymphocytes from HIV seropositive subjects. cAMP was then measured on lysates of these cells after 1 hour.

C[C@H]1O[C@@H](n2cnc3c(N)ncnc32)C[C@@H]1O [ddAdo, 2′,5′ dideoxyadenosine]
cAMP levels (10 ng/ml for 10 min, decreased from 5.3): 3.6 pmol/10^6 PBMC
Time for intracellular cAMP level to decrease to normal levels (added for 10 minutes followed by washing, remained at this level after 20 hours, FIG. 9A): ≤ 4 h

From US6429208B1, “Methods and compositions for restoring impaired cellular immune function” (Regents of the University of California, priority 1992, dated 2002)
